{"source": "patent US11351218B2", "about": "“Composition for preventing or treating glioblastoma comprising Platycodon grandiflorum A. De Candolle, Scutellaria baicalensis, Phellodendron amurense Ruprecht or Rubus coreanus” (University-Industry Cooperation Group of Kyung Hee …, priority 2019, dated 2022)", "key": {"LC3B and SQSTM1/p62": {"tested_on": "LC3B and SQSTM1/p62", "assay": "Immunoblot of LC3B and SQSTM1/p62 in GBM cells (U87MG and U373MG)", "type": "cell-based, human", "method": "FIGS. 2A and 2B show the results that an extract of Platycodon grandiflorum (PG) increases the levels of LC3-II and p62. […] GAPDH was used as a loading control.\nFIGS. 3A to 3C show the results that PD inhibits autophagic flux in GBM cells. […] The expression of LC3B and SQSTM1 was confirmed by immunoblot analysis. […] GAPDH was used as a loading control.\nThe human glioma cell lines, U87MG and U373MG, were cultured respectively in RPMI-1640 (Welgene) and DMEM (Welgene, Daegu, Korea) supplemented with 10% fetal bovine serum (FBS, JR Scientific) and 1% antibiotics (Ab, Welgene). All cultures were maintained at 37° C. in a humidified incubator containing 5% CO2.\n(§1) Cells treated with the concentrations and materials described in FIGS. 1-3B, 7, 8, 10, 13, 16, 18, and 20 were lysed in buffer containing 20 mM Tris-HCl (pH 7.5), 150 mM NaCl, 1 mM EDTA, 1 mM Na2EDTA, 1 mM EGTA, 1% NP-40, 1% sodium deoxycholate, 1 mM Na3VO4, 1 mM MPI, 1 mM PMSF, and PI cocktails for 15 to 20 minutes on ice. Cell lysates were separated by SDS-PAGE and transferred to nitrocellulose membranes. Immunodetection was performed with the following primary antibodies: rabbit anti-LC3B, rabbit anti-cathepsin B, rabbit-anti GAPDH (Cell Signaling Technology, Danvers, Mass.), mouse anti-SQSTM1/p62, and goat anti-cathepsin D (Santa CruzKPL, Gaithersburg, Md., USA) were incubated at room temperature for 1 hour. The protein bands were detected with ECL western Blotting Substrate (Thermo Fisher Scientific, Waltham, Mass., USA)."}, "U373 cells": {"tested_on": "U373 cells", "assay": "GFP-LC3B puncta assay (confocal microscopy), U373 cells", "type": "cell-based, human", "settings": "U373, 10 μM PD, 24 hours", "method": "The cells transiently expressing GFP-LC3 (green) were treated with DMSO or PD (10 μM) for 24 hours and analyzed by confocal microscopy. Nuclei were stained with DAPI (blue). Quantification shown on the right graph represents mean GFP-LC3B puncta per cells from three independent experiments±SD.\nCultured cells seeded in plates with microscope coverslips were transfected with a pGFP-LC3B plasmid using Lipofectamine 3000 (Thermo Fisher Scientific) according to the manufacturer's instructions. After the transfection, the cells were fixed with 4% paraformaldehyde (PFA) in phosphate-buffered saline (PBS) at room temperature for 10 minutes. The images were examined under a laser confocal microscope (Zeiss, Oberkochen, Baden-Wurttemberg, Germany).\nTo confirm the western blot data, the LC3B accumulation in GBM cells was monitored using a confocal microscope. Both U87MG and U373MG cells transfected with a green fluorescent protein (GFP)-tagged LC3 expression plasmid were treated with 10 μM PD for 24 hours and examined under a confocal microscope."}, "U87MG and U373MG cells [1]": {"tested_on": "U87MG and U373MG cells", "assay": "WST1 cell viability assay, GBM cells", "type": "cell-based, human", "method": "FIGS. 6A and 6B show the results that PD induces a decrease in cell viability and vacuole formation. […] Data shown represent the means of quintuplicate measurements which were repeated three times. The results are presented as a percentage of control (means±SD).\n(§2) Cell cytotoxicity was assessed by WST1 assay. U87 and U373 cells were each seeded in a 96-well plate (5×10^3 cells/well) and treated with different concentrations of platycodin D (PD). Then, cells were incubated with a WST1 reagent (Dogen, Seoul, Korea) for 2 hours before reading the plate. Absorbance was measured at 450 nm using an ELISA reader (Versa Max, Molecular Devices, Sunnyvale, Calif., USA)."}, "[2]": {"tested_on": "A549, H358, MCF7, HT29 and HepG2 cells", "assay": "WST1 cell viability assay in various cancer cell lines", "type": "cell-based", "settings": "different concentrations, 48 hours, all cell lines tested", "method": "FIGS. 9A to 9C show the results that PD decreases cell viability and vacuole formation in various cancer cell lines. FIGS. 9A and 9B show the results in which indicated cells were treated with different concentrations of PG or PD for 48 hours and cell viability was measured by WST1 assay. Data shown represent the means of quintuplicate measurements which were repeated three times. The results are presented as a percentage of control (means±SD).\nas §2\nPreviously, PD was reported to inhibit cell viability in various cancer cell lines. To further confirm the effects of PD on the cytotoxicity of cancer cells, WST1 assay was performed following treatment with different concentrations of PD."}, "[3]": {"tested_on": "A549, H358, MCF7, HT29 and HepG2 cells", "assay": "Cell morphology (vacuoles) under optical microscope in various cancer cell lines", "type": "cell-based", "settings": "PG 500 μg/mL or PD 10 μM, 24 hours"}, "U87MG and U373MG cells [4]": {"tested_on": "U87MG and U373MG cells", "assay": "mRFP-GFP-LC3 tandem reporter (autolysosome formation) in GBM cells", "type": "cell-based, human", "settings": "PD 10 μM or Rapa 1 μM, 24 hours", "method": "Cells stably expressing mRFP-GFP-LC3 were incubated with PD (10 μM) or Rapa (1 μM) for 24 hours, and then analyzed by confocal microscopy. The merged images (yellow) show an overlap between GFP-LC3 (green) and mRFP-LC3 (red). The panels on the right are higher-magnification images of the boxed regions.\nIn order to examine whether PD induces accumulation of autophagosomes by inhibiting their maturation into autolysosomes, a tandem-tagged fluorescent reporter, mRFP-GFP-LC3, was used. The GFP fluorescence of the fusion protein is rapidly quenched in lysosomal acidic conditions, whereas the RFP fluorescence is relatively stable. The yellow dots in the merged image are indicative of autophagsomes and […] dots correspond to autolysosomes. The mRFP-GFP-LC3 plasmids were transfected into U87MG and U373MG cells, treated with PD for 24 hours, and subjected to confocal microscopy."}, "LDLR": {"tested_on": "LDLR", "assay": "Immunoblot of LDLR in U87MG, U373MG cells and normal astrocytes", "type": "cell-based, human", "settings": "24 hours", "method": "FIGS. 16A to 16D show the results that PD increases the expression of LDLR on cell surfaces in GBM cells. […] GAPDH was used as a loading control. […] GAPDH was used as a loading control.\nas §1\nBrain is the most cholesterol-rich organ of the body, containing about 20% of total body cholesterol. […] As can be confirmed in FIG. 16A, in consistent with these reports, the LDLR protein level was markedly elevated in U87MG and U373MG cells relative to normal human astrocytes. […] Then, the cell surface expression of LDLR was confirmed by flow cytometry."}}, "data": [{"smiles": "C[C@@H]1O[C@@H](O[C@H]2[C@H](OC(=O)[C@]34CCC(C)(C)C[C@H]3C3=CC[C@@H]5[C@@]6(C)C[C@H](O)[C@H](O[C@@H]7O[C@H](CO)[C@@H](O)[C@H](O)[C@H]7O)C(CO)(CO)[C@@H]6CC[C@@]5(C)[C@]3(C)C[C@H]4O)OC[C@H](O)[C@@H]2O)[C@H](O)[C@H](O)[C@H]1O[C@@H]1OC[C@@H](O)[C@H](O[C@@H]2OC[C@](O)(CO)[C@H]2O)[C@H]1O", "note": "[PD, platycodin D]", "values": [{"measurement": "LC3B-II and p62 levels over time", "setting": "LC3B and SQSTM1/p62; 10 μM PD, 3 hours to 24 hours", "value": "time-dependent increases"}, {"measurement": "LC3B-II and p62 levels", "setting": "LC3B and SQSTM1/p62; PD 0 μM to 10 μM, 24 hours", "value": "dose-dependent increases"}, {"measurement": "concentration of maximum activity (LC3B-II and p62 levels)", "setting": "LC3B and SQSTM1/p62; PD 0 μM to 10 μM, 24 hours", "value": 10, "unit": "µM"}, {"measurement": "fold increase of GFP-LC3 puncta per cell vs DMSO", "setting": "U373 cells", "value": 8.9, "unit": "fold"}, {"measurement": "GFP-LC3 puncta per cell", "setting": "U373 cells; mean±SD", "value": "32.84±3.98"}, {"measurement": "viability of GBM cells", "setting": "U87MG and U373MG cells [1]; 10 μM PD, 3 days", "value": "reduced the viability"}, {"measurement": "percentage of viable cells", "setting": "U87MG and U373MG cells [1]; PD 0-20 μM, 48 hours, dose-dependent", "value": "significantly decreased"}, {"measurement": "cell viability", "setting": "U87MG and U373MG cells [1]; PD 10 μM, 48 hours, GBM cells, percentage of control", "value": "approximately 60%"}, {"measurement": "cell viability", "setting": "[2]", "value": "suppressed the-viability in a dose-dependent manner"}, {"measurement": "vacuoles", "setting": "[3]", "value": "visible vacuoles were observed"}, {"measurement": "mRFP and GFP dots of mRFP-GFP-LC3", "setting": "U87MG and U373MG cells [4]", "value": "GFP-positive dots were retained and colocalized with mRFP dots"}, {"measurement": "LDLR expression", "setting": "LDLR; PD 5 μM and 10 μM or U18666a 1 μM, U87MG, U373MG and normal astrocytes", "value": "significantly increased"}, {"measurement": "degree of LDLR expression, GBM cells vs normal astrocytes", "setting": "LDLR; PD 5 μM and 10 μM", "value": "more prominent in GBM cells than in normal astrocytes"}]}]}
